Results taken from patent publication US5294713A, “2-piperazinone compounds and their use” (Takeda Chemical Industries, Ltd., priority 1991, dated 1994).

Legend:
[1] = test system: human platelet aggregation; test: Inhibitory action on human platelet aggregation (ADP-stimulated PRP); type: cell-based; conditions: ADP final concentration 3 μM, in vitro, read-out: Inhibitory effect on platelet aggregation in vitro (IC50) man
Description: [II] Inhibitory action on human platelet aggregation
Human blood was collected in 3.8% sodium citrate (1 ml for 9 ml of blood) by venipuncture from healthy male volunteers. The blood was centrifuged at 1000 g for 3 to 5 seconds at room temperature to obtain platelet rich plasma (PRP). The PRP was further centrifuged at 1000 g for 10 minutes to obtain platelet poor plasma (PPP). The number of platelets was measured using an automatic blood cell counter (Sysmex E2500, Toaiyou-densi). The platelet density of PRP was adjusted to 300,000/μl with PPP. Platelet aggregation was measured using an 8-channel aggregometer (NBS HEMA TRACER VI Niko Bioscience Inc.). The PRP (250 μl) was preincubated at 37° C. for 2 minutes. and then incubated for 2 minutes. with 25 μl of physiological saline or various concentrations of test drugs followed by stimulation with ADP (final concentration: 3 μM). By comparing the maximum aggregation rates of the control and those of test drugs, the inhibitory rates were determined. The results are shown in [Table 1]-[Table 3].

GPIIb/IIIa = molecular target: T1, GPIIb/IIIa (Homo sapiens, UniProt P05106+P08514); test: Inhibition of fibrinogen binding to GPIIb/IIIa; conditions: purified GPIIb/IIIa from HEL cells, biotinylated human fibrinogen 1 nM
T1 construct: Purification of GPIIb/IIIa from HEL Cells; endogenous in cells; host or cells: HEL cells (HEL 92.1.7; ATCC TIB180), human erythroleukemia; GPIIb/IIIa solubilized in Triton X-100, purified and adsorbed on microtiter plates
Description: (1) Cultibation of Cells Derived from Human Erythroleukemia (Hereinafter Referred to as HEL Cells)
HEL cells (HEL 92. 1. 7; ATCC No. TIB180) were purchased from ATCC (Rockville, Md., U.S.A.). The cells were grown in RPMI medium containing 40 mM N-2-hydroxyethylpiperazin-N'-2-ethanesulfonic acid (hereinafter referred to as HEPES) (pH 7.0), 100 μg/ml of Kanamycin and 10% FCS (GIBCO Laboratories, Grand Island, N.Y., U.S.A.). Cultivation was conducted at 37° C in the presence of 5% CO2.
(2) Purification of GPIIb/IIIa from HEL Cells
Purification of GPIIb/IIIa was performed using the following modification of the method of L. A. Fitzgerald et al. [J. Biol. Chem., 262, 3936 (1987)]. The purification was conducted at room temperature unless specifically mentioned. From 7 L of the culture broth on 7th day of the cultibation (floating cells), the cells were collected by centrifugation (1,000×g, 10 minutes, 4° C.), which were washed with 20 mM Tris-HCl(pH 7.5) containing 1 mM EDTA and 150 mM NaCl. The cells were suspended in 80 ml of a solubilized buffer [20 mM Tris-HCl, 150 mM NaCl, 1% Triton X-100, 1 mM MgCl2, 1 mM CaCl2, 0.1 mM (p-amidinophenyl)methanesulfonyl fluoride (hereinafter referred to as APMSF), 10 nM leupeptin, 0.02% NaN3, pH 7.4)].
The cell suspension was gently mixed for 30 minutes at 4° C. to solubilize GPIIb/IIIa. The suspension was subjected to centrigugation (100,000×g, one hour) at 4° C. to remove cell debris to obtain a cell-extraction solution (60 ml). […] The fraction which passed through the column was charged on the ConA-Sepharose column (Pharmacia LKB, .phi. 1.0×15 cm, 20 ml/hr) to allow GPIIb/IIIa to be adsorbed thereon, then GPIIb/IIIa was eluted with column buffer solution containing 0.5 M methyl α-D-mannopyranoside. The eluate thus obtained was allowed to pass through the DEAE-Toyopearl 650 M column (Tosoh, .phi. 1.6×10.5 cm, 20 ml/hr) equilibrated with the same column buffer to remove contaminating proteins.
(3) Biotinylation of Human Fibrinogen
Biotinylation of human fibrinogen was performed by the following procedure [I. F. Charo et al., J. Biol. Chem., 266, 1415 (1991)]. Human fibrinogen (Kabi Vitrum AB, Stockholm, Sweden) was dissolved in PBS so as to make its concentration 5 mg/ml. The solution was dialyzed overnight at 4° C. against 1 L of 0.1 M NaHCO3 -0.1 M NaCl (pH 8.2). Insolubles were then removed by centrifugation (100,000×g, 30 minutes), and the solution was diluted with the same buffer to the protein concentration of 1 mg/ml. To thus-diluted solution was added powdery sulfo-N-hydroxysuccinimidobiotin (Pierce Chemical Co., Rockford, Ill., U.S.A.) so as to make its final concentration 0.2 mg/ml and gently mixed to perform biotinylate fibrinogen. The resultant was subjected to dialysis against 50 mM Tris-HCl (pH 7.4) - 100 mM NaCl-0.05% NaN3. The dialysate was distributed and stored at 4° C.
(4) Inhibition Assay for Fibrinogen Binding to GPIIb/IIIa
This experiment was performed using a modification of the method described in the above-mentioned I. F. Charo et al. report. The purified GPIIb/IIIa was diluted with the buffer A (20 mM Tris-HCl, 150 mM NaCl, 1 mM CaCl2, 0.02% NaN3, pH 7.4) to a concentration of 1 μg/ml. The diluted solution was added to 96-well microtiter plates (MaxiSorp; Nunc, Denmark) at 100 μl per well, which were left standing at 4° C. overnight to allow GPIIb/IIIa to be adsorbed on the microplates. The plate was aspirated, and then 150 μl of the buffer B (35 mg/ml BSA, 50 mM Tris-HCl, 100 mM NaCl, 2 mM CaCl2, 0.02%, NaN3, pH 7.4) was added to the plate, and blocking was performed at 30° C. for 2 hours. The plate was washed twice with 250 μl each of the buffer C (1 mg/ml BSA, 50mM Tris-HCl, 100 mM NaCl, 2 mM CaCl2, pH 7.4).

[2] = test system: guinea pig platelet aggregation; test: Inhibitory action on guinea pig platelet aggregation (ADP-stimulated PRP); type: cell-based; conditions: Cavia porcellus, ADP final concentration 1 μM, in vitro, read-out: Inhibitory effect on platelet aggregation in vitro (IC50) guinea pig
Description: TEST EXAMPLE 1 [I] Inhibitory action on guinea pig platelet aggregation
Blood was collected in 3.15% sodium citrate (1 ml for 9 ml of blood) by cardiac puncture from male guinea pig. The blood was centrifuged at 1000 g for 3 to 5 seconds at room temperature to obtain platelet rich plasma (PRP). The PRP was further centrifuged at 1000 g for 10 minutes to obtain platelet poor plasma (PPP). The number of platelets was measured using an automatic blood cell counter (Sysmex E2500, Toaiyou-densi). The platelet density of PRP was adjusted to 400,000/μl with PPP. Platelet aggregation was measured using an 8-channel aggregometer (NBS HEMA TRACER VI Niko Bioscience Inc.). The PRP (250 μl ) was preincubated at 37° C. for 2 minutes. and then incubated for 2 minutes. with 25 μl of physiological saline or various concentrations of test drugs followed by stimulation with ADP (final concentration: 1 μM). By comparing the maximum aggregation rates of the control and those of test drugs, the inhibitory rates were determined. The results are shown in [Table 1]-[Table 3].

T1 sequence (P08514 32-887 limits assumed): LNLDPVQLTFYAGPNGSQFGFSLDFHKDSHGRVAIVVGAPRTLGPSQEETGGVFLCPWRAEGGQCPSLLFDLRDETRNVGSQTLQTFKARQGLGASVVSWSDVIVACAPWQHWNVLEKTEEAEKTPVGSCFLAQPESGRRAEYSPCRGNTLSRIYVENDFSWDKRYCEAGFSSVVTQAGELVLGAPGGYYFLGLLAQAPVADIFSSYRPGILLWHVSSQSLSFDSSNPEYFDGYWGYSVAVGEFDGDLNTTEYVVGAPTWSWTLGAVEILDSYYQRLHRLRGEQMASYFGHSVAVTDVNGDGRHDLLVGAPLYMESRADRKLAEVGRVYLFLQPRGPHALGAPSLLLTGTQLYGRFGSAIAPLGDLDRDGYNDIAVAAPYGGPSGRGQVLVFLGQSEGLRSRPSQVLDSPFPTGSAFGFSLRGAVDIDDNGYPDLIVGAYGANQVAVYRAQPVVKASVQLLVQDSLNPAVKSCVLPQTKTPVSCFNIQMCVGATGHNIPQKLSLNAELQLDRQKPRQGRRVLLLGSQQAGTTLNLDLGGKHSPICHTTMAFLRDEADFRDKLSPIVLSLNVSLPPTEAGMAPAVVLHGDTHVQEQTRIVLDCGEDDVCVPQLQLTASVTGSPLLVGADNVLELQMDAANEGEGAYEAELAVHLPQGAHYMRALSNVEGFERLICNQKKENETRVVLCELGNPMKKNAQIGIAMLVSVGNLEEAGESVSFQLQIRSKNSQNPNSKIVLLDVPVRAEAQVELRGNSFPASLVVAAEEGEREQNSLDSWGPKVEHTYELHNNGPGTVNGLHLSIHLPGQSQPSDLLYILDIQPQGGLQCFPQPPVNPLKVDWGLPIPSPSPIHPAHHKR
T1 sequence (P08514 891-1039 limits assumed): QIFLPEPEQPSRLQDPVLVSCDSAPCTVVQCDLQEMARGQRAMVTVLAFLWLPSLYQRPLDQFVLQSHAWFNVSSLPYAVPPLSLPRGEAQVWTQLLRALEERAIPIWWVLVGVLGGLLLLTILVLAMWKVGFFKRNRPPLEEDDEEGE
T1 sequence (P05106 27-788): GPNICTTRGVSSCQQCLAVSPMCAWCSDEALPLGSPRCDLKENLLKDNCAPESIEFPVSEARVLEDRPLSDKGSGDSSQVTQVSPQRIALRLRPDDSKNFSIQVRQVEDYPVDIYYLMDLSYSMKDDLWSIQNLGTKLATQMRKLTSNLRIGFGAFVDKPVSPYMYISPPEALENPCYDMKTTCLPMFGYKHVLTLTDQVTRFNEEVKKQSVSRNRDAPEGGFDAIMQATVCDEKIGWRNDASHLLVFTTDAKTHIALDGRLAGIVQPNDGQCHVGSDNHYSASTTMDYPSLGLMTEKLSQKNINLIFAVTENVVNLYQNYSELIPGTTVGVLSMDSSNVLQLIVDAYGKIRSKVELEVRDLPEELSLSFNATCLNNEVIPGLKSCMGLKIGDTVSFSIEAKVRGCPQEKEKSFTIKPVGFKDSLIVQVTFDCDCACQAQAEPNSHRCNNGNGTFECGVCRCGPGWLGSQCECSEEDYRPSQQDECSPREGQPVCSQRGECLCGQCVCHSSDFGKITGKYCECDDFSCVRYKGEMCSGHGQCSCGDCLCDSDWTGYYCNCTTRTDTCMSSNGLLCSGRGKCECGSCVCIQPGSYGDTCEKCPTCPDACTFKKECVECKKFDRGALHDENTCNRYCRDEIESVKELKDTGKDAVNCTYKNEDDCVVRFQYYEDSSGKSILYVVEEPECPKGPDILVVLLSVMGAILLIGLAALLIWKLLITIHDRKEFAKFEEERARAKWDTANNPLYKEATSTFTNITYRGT

C[C@@H](C(=O)O)N1CCN(C(=O)CNC(=O)c2ccc(C(=N)N)cc2)[C@@H](CC(=O)O)C1=O [compound 69]
IC50 [1]: 1.6 µM
IC50 (GPIIb/IIIa): 0.019 µM
IC50 [2]: 1.5 µM

N=C(N)c1ccc(C(=O)NCC(=O)N2CCN(CC(=O)O)C(=O)[C@@H]2CC(N)=O)cc1 [compound 71]
IC50 [1]: 0.074 µM
IC50 (GPIIb/IIIa): 0.00092 µM
IC50 [2]: 0.11 µM

NCCc1ccc(C(=O)NCC(=O)N2CCN(CC(=O)O)C(=O)[C@@H]2CCC(=O)O)cc1 [compound 76]
IC50 [1]: 0.15 µM
IC50 (GPIIb/IIIa): 0.001 µM
IC50 [2]: 0.11 µM

CN(C)CCc1ccc(C(=O)NCC(=O)N2CCN(CC(=O)O)C(=O)[C@@H]2CCC(=O)O)cc1 [compound 77]
IC50 [1]: 4.7 µM
IC50 (GPIIb/IIIa): 0.045 µM
IC50 [2]: 2.5 µM

COC(=O)CC[C@H]1C(=O)N(CC(=O)O)CCN1C(=O)CNC(=O)c1ccc(CCN)cc1 [compound 80]
IC50 [1]: 0.11 µM
IC50 (GPIIb/IIIa): 0.00089 µM
IC50 [2]: 0.12 µM

NCCc1ccc(C(=O)NCC(=O)N2CCN(CC(=O)O)C(=O)[C@@H]2CCC(N)=O)cc1 [compound 84]
IC50 [1]: 0.12 µM
IC50 (GPIIb/IIIa): 0.001 µM
IC50 [2]: 0.11 µM

CN(C)CCc1ccc(C(=O)NCC(=O)N2CCN(CC(=O)O)C(=O)[C@@H]2CCC(N)=O)cc1 [compound 85]
IC50 [1]: 5.6 µM
IC50 (GPIIb/IIIa): 0.032 µM
IC50 [2]: 4.1 µM

NCCc1ccc(C(=O)NCC(=O)N2CCN(CC(=O)O)C(=O)C2)cc1 [compound 87]
IC50 [1]: 0.18 µM
IC50 (GPIIb/IIIa): 0.0016 µM
IC50 [2]: 0.15 µM

NCCc1ccc(C(=O)NCC(=O)N2CCN(CC(=O)O)C(=O)[C@@H]2CC(N)=O)cc1 [compound 88]
IC50 [1]: 0.14 µM
IC50 (GPIIb/IIIa): 0.0023 µM
IC50 [2]: 0.084 µM

NCCc1ccc(C(=O)NCC(=O)N2CCN(CC(=O)O)C(=O)[C@@H]2Cc2ccccc2)cc1 [compound 89]
IC50 [1]: 0.38 µM
IC50 (GPIIb/IIIa): 0.0036 µM
IC50 [2]: 0.2 µM
